Data published in patent US20010020007A1, “Vitamin preparations for reducing oxygen consumption during physical efforts” (priority 1996, published 2001).
Values joined by “and” are separate entries in the source; they are usually repeats but may differ in a detail not shown here. Identical values can stand only once.

Legend:
[1] = tested on: individual B; experiment: Ergometer study c): Preparations I-IV with sulphonylureas and/or glucocorticoids, 5 minutes before test (Example 39); type: in vivo, human; details: 125 W for 45 min, ingested 5 min before test, chlorpropamide 20 mg, glibornuride 1 mg, glibenclamide 100 μg, dexamethasone 20 μg, prednisolone 200 μg, Prep. one dose unit
Method: (§1) Analogously to Example 37, the following studies a) to c) were carried out on two male individuals, trained for endurance cycling and kept on a permanently carbohydrate-rich diet; individual A (weighing 67 kg) having a maximum oxygen uptake capacity of 3.3 l and an oxygen transport volume per heart beat of 29 ml (corresponding to 0.6 kJ), and individual B (weighing 74 kg) having a maximum oxygen uptake capacity of 4.5 l and an oxygen transport volume per heart beat of 36 ml (corresponding to 0.75 kJ) . The following preparations were used, in which the indicated amounts correspond to one dose unit and which were obtained by dissolving or suspending the components in water and gelling the mixture:
(§2) Prep. I: 10 mg of D-glucose, 1 mg of thiamine and 10 mg of ascorbic acid heated with 5 mg of agar-agar in 1 ml of water;
(§3) Prep. II: 25 mg of ethanol, 1 mg of thiamine and 50 μg of biotin heated with 5 mg of agar-agar in 1 ml of water;
Prep. III: 25 mg of ethanol, 250 μg of folic acid and 5 μg of cyanocobalamin heated with 5 mg of gelatin in 1 ml of water;
Prep. IV: 10 mg of H-Gly-Gly-OH, 300 μg of folic acid and 5 μg of cyanocobalamin heated 5 mg of gelatin in 1 ml of water.
(§4) H-Gly-Gly-OH was bought from Novabiochem, Läufelfingen, Switzerland. Insulin was injected subcutaneously, while the other medicaments were ingested alone or together with one of Preparations I-IV.
c) In a further test series, the effect of Preparations I-IV was tested when applied in combination with sulphonylurea derivatives and/or glucocorticoids immediately before the physical exercise. In these tests, individual B was subjected to a workload of 125 W (60 r.p.m.) for 45 minutes; the drugs and Preparations were ingested 5 minutes before the test.

[2] = Stimulation of glycogen synthesis and anaerobic glucose breakdown in the muscle by other sugars (description); type: in vivo; details: even if taken together with vitamin B1 and vitamin C
Excerpt: D-Maltose can replace the D-glucose in the preparation according to the invention and is even active in considerably lower amounts. […] The conversion of the sucrose or fructose to glucose, however, only takes place in the liver if they have been absorbed from the small intestine.

[3] = tested on: male individuals A and B, trained for endurance cycling; experiment: Ergometer study a): insulin or sulphonylureas alone or with gelatin and/or Preparation I or II, 15 minutes before test (Example 39); type: in vivo, human
Method: as §1, §2, §3, §4
a) In a first study, insulin or antidiabetic sulphonylurea derivatives were applied, alone or in combination with gelatin and/or Preparation I or II, 15 minutes before the tests. In the tests, individual A was subjected to a workload of 100 W (60 r.p.m.) for 15 minutes (tests A1-A8), and individual B was subjected to a workload of 175 W (60 r.p.m.) for 10 minutes (tests B9-B29).

[4] = tested on: male individuals A and B, trained for endurance cycling; experiment: Ergometer study b): sulphonylureas, glucocorticoids, Preparation I and combinations, evening before test (Example 39); type: in vivo, human; details: individual A, 100 W for 25 min, before sleep, glibenclamide 2.5 mg, glibornuride 25 mg
Method: as §1, §2, §4
b) In a second study, antidiabetic sulphonyl urea derivatives, glucocorticoids, Preparation I and combinations thereof were administered before sleep, the evening before the tests. In the tests, individual A was subjected to a workload of 100 W (60 r.p.m.) for 25 minutes (tests A1-A9), and individual B was subjected to a workload of 175 W (60 r.p.m.) for 45 minutes (tests B10-B33).

[5] = individual A, 100 W for 15 min, 2.5 mg glibenclamide 15 min before test
[6] = individual B, 175 W for 10 min, 15 min before test, 5 I.U. insulin s.c., glibenclamide 2.5 mg alone or 100 μg with gelatin, chlorpropamide 10 mg, gelatin 5 mg, Prep. one dose unit

Compound | Heat production [1] [kJ] | Mean heart rate [1] [per min.] | Oxygen consumption [1] [L] | Stimulation of glycogen synthesis and of the anaerobic glucose breakdown in the muscle [2] | Heat production [3, 6] | Mean heart rate [3, 6] | Oxygen consumption [3, 6] | Heat production [4] | Mean heart rate [4] | Oxygen consumption [4] | also measured
CCCNC(=O)NS(=O)(=O)c1ccc(Cl)cc1 [chlorpropamide] | 2717 | 132.5 | 130 |  |  |  |  |  |  |  | 
O=C(CO)[C@@H](O)[C@H](O)[C@H](O)CO [fructose] |  |  |  | ineffective |  |  |  |  |  |  | 
COc1ccc(Cl)cc1C(=O)NCCc1ccc(S(=O)(=O)NC(=O)NC2CCCCC2)cc1 [glibenclamide] | 2727 | 132.6 | 131 |  | 724 kJ and 698 kJ | 147.5 per min. and 145.1 per min. | 34 L | 622 kJ and 613 kJ and 531 kJ | 101.5 per min. and 100.9 per min. and 95.4 per min. | 30 liter (2×) and 26 liter | Heat production [3, 5]: 687 kJ and 700 kJ and 679 kJ; Mean heart rate [3, 5]: 136.4 per min. and 137.8 per min. and 135.4 per min.; Oxygen consumption [3, 5]: 33 liter (2×) and 34 liter
Cc1ccc(S(=O)(=O)NC(=O)N[C@H]2[C@H]3CC[C@@](C)([C@H]2O)C3(C)C)cc1 [glibornuride] | 2706 | 132.2 | 130 |  |  |  |  | 600 kJ | 100.0 per min. | 29 L | 
OC[C@H]1O[C@@](CO)(O[C@H]2O[C@H](CO)[C@@H](O)[C@H](O)[C@H]2O)[C@@H](O)[C@@H]1O [sucrose] |  |  |  | ineffective |  |  |  |  |  |  | 
insulin |  |  |  |  | 675 kJ and 696 kJ (2×) | 142.0 per min. and 144.8 per min. (2×) | 32 liter and 33 liter (2×) |  |  |  | Effect on heat production and oxygen consumption induced by constant physical work loads ([3]; applied 15 minutes before the test): increase
